We go through four sequences from article PMC10447463, “Data-mining unveils structure–property–activity correlation of viral infectivity enhancing self-assembling peptides” (Nature Communications, 2023).

Where two headings read alike, the source gives them in different places.

The subject of data set [1] is HIV-1 infection of TZM-bl cells. Nature of the data set: HIV-1 infectivity enhancement assay, β-galactosidase luminescence. Particulars: for Rel-EFC / Log10 Infection Rel EFC: 1.3 µM peptide; for Rel-EFC: infection relative to EF-C (QCKIKQIINMWQ = 1); for Log10 Infection Rel EFC: log10 of infection relative to EF-C; for Log Infectivity: Log10 infection relative to EF-C, TZM-bl cells, asymmetric std dev errors; for Log10 Infection Rel EF-C: HIV-1 infection of TZM-bl cells; for Log10 of Rel to EFC (Feb2021): Log10 of infection relative to EF-C, all peptides of FigS16. The data set is classed as cell-based.

Data set [2] is classed as physicochemical. As to conditions: for Tht category (> 2 to blank = +): Fig S10 panel D; for ThT Cat,: ThT category; for ThT Cat. / ThT-Fluorescence (categorical): ThT-active if fluorescence at least twice the control. Summed up:
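Preformed peptide fibrils (1 mg/mL) mixed with 50 µM ThT in PBS, 15 min at RT, fluorescence ex 440/em 488 nm versus PBS blank, triplicates. Zeta potential: peptides at 1 mg/mL in PBS pH 7.4, aged 1 d at RT, diluted in 1 mM KCl, Smoluchowski from electrophoretic mobility.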

Data set [3] is described as follows: Conversion rate (CR) assay with fluorescamine. As to conditions: conversion rate, fluorescamine assay; for CR / %: Fig. S7 panel B. The data set is classed as physicochemical. More on the design: key to CR: % = 100−100×filtrate/original fluorescence intensity. Summed up:
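Spectra: 64 scans, 2 cm^-1, lyophilized PNF (1 mg/mL source). CR = 100 − 100 × filtrate/original fluorescamine signal; triplicate, ± SD.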

[4] abbreviates: Fig. S7 panel A (plotted against β-sheet content).
[5] abbreviates: Fig. S7 panel B (plotted against CR), rounded to two decimals.
The mark [6] stands for this setting: Log10 of infection rate relative to EF-C, Figure 3A source data.
The mark [7] stands for this setting: infection rate relative to EF-C, log10, data of Figure 2D.
[8] abbreviates: infection rate relative to EF-C, log10, source data of Figure 2C.
The mark [9] stands for this setting: ThT fluorescence category, 1 if Rel. ThT >2.

For the sequence HHHHKIKIQINMYYYY, the Rel-EFC in data set [1] is 1,11. The “Log10 Infection Rel EFC” value in data set [1] is 0,04. The entries for the “Log Infectivity” value in data set [1] (setting [4]) and in data set [1] (setting [5]) were 0.04454 and 0.04, respectively. For the same sequence, the results for the “Log10 Infection Rel EF-C” value in data set [1] (setting [6]), in data set [1] (setting [7]) and in data set [1] (setting [8]) were 0.04, 0.04454 and 0.04454, respectively. Moreover, the “Log10 of Rel to EFC (Feb2021)” value in data set [1] came out at 0.04. Further, the “Tht category (> 2 to blank = +)” value in data set [2] is 1 (ThT. Cat is 1, if Rel. ThT >2). Further, the “ThT Cat.” value is 1 (ThT. Cat is 1, if Rel. ThT >2) in data set [2] (Fig S10 panel E) and 1 (ThT. Cat is 1, if Rel. ThT >2) in data set [2] (setting [9]). Also, the “ThT Cat,” value in data set [2] (1 if Rel. ThT >2) was 1 (ThT. Cat is 1, if Rel. ThT >2). Besides, in data set [2], the “ThT Cat. / ThT-Fluorescence (categorical)” value (shortened to “ThT Cat. / ThT-Fluorescence”) is reported as 1 (ThT. Cat is 1, if Rel. ThT >2). The sequence further registered a CR / % in data set [3] of 98.4%. This sequence also displayed a CR in data set [3] of 98.42.
For CKIKIQIRGD, the Rel-EFC in data set [1] is 0,33. Also, the “Log10 Infection Rel EFC” value in data set [1] is listed as -0,48. Besides, the “Log Infectivity” value is reported as -0.4842 in data set [1] (setting [4]) and -0.48 in data set [1] (setting [5]). Besides, the “Log10 Infection Rel EF-C” value in data set [1] (setting [6]) was -0.48; in data set [1] (setting [7]), -0.4842; in data set [1] (setting [8]), -0.4842. For the same sequence, the “Log10 of Rel to EFC (Feb2021)” value in data set [1] is -0.48. The “Tht category (> 2 to blank = +)” value in data set [2] was 0 (ThT-inactive (N-Fold <2)). In addition, the “ThT Cat.” value in data set [2] (Fig S10 panel E) and in data set [2] (setting [9]) was 0 (ThT-inactive (N-Fold <2)) throughout. Moreover, the “ThT Cat,” value in data set [2] (1 if Rel. ThT >2) is 0 (ThT-inactive (N-Fold <2)). In addition, the “ThT Cat. / ThT-Fluorescence” value in data set [2] is 0 (ThT-inactive (N-Fold <2)). The sequence also showed a CR / % in data set [3] of 91%. For the same sequence, the CR in data set [3] is reported as 91.
In the case of CEFEFQFNMWQ, in data set [1], the Rel-EFC is 0,14, the “Log10 Infection Rel EFC” value is recorded as -0,85 and the “Log10 of Rel to EFC (Feb2021)” value was -0.85. Moreover, the “Log Infectivity” value in data set [1] (setting [4]) is on record as -0.8509. Also, the “Log Infectivity” value in data set [1] (setting [5]) is listed as -0.85. Further, the “Log10 Infection Rel EF-C” value in data set [1] (setting [6]) is on record as -0.85. Moreover, the “Log10 Infection Rel EF-C” value in data set [1] (setting [7]) is listed as -0.8509. Further, the “Log10 Infection Rel EF-C” value in data set [1] (setting [8]) is listed as -0.8509. Besides, in data set [2], the “Tht category (> 2 to blank = +)” value is 1 (ThT. Cat is 1, if Rel. ThT >2) and the “ThT Cat. / ThT-Fluorescence” value is listed as 1 (ThT. Cat is 1, if Rel. ThT >2). For the same sequence, the “ThT Cat.” value in data set [2] (Fig S10 panel E) is 1 (ThT. Cat is 1, if Rel. ThT >2). Also, in data set [2] (1 if Rel. ThT >2), the “ThT Cat,” value is listed as 1 (ThT. Cat is 1, if Rel. ThT >2). In addition, the “ThT Cat.” value in data set [2] (setting [9]) was 1 (ThT. Cat is 1, if Rel. ThT >2). In data set [3], this sequence returned a CR / % of 98.6% and a CR of 98.63.
Turning to KFKFKFQF, in data set [1], the Rel-EFC is reported as 0,8, the “Log10 Infection Rel EFC” value is -0,1 and the “Log10 of Rel to EFC (Feb2021)” value is on record as -0.1. In addition, the “Log Infectivity” value in data set [1] (setting [4]) is recorded as -0.09726. For the same sequence, the “Log Infectivity” value in data set [1] (setting [5]) is given as -0.1. In addition, in data set [1] (setting [6]), the “Log10 Infection Rel EF-C” value is recorded as -0.1. In data set [1] (setting [7]), the “Log10 Infection Rel EF-C” value is given as -0.09726. Besides, the “Log10 Infection Rel EF-C” value in data set [1] (setting [8]) was -0.09726. Moreover, in data set [2], the “Tht category (> 2 to blank = +)” value is on record as 1 (ThT. Cat is 1, if Rel. ThT >2) and the “ThT Cat. / ThT-Fluorescence” value was 1 (ThT. Cat is 1, if Rel. ThT >2). Moreover, the “ThT Cat.” value in data set [2] (Fig S10 panel E) is 1 (ThT. Cat is 1, if Rel. ThT >2). The “ThT Cat,” value in data set [2] (1 if Rel. ThT >2) is recorded as 1 (ThT. Cat is 1, if Rel. ThT >2). Besides, the “ThT Cat.” value in data set [2] (setting [9]) is reported as 1 (ThT. Cat is 1, if Rel. ThT >2). Besides, in data set [3], the CR / % is on record as 94% and the CR is given as 94.
